Source: US9862676B2, “Hydroxamic acid derivative or salt thereof” (TOYAMA CHEMICAL CO., LTD., priority 2013, dated 2018)
≈ marks a conversion by molar mass, not a printed value.

What was measured:
[1] = target: T1, Pseudomonas aeruginosa LpxC enzyme (Pseudomonas aeruginosa, UniProt P47205); assay: Test to evaluate Pseudomonas aeruginosa LpxC enzyme inhibitory activity; assay type: biochemical
T1 construct: made in house; host or cells: Escherichia coli
T1 sequence (P47205 1-303): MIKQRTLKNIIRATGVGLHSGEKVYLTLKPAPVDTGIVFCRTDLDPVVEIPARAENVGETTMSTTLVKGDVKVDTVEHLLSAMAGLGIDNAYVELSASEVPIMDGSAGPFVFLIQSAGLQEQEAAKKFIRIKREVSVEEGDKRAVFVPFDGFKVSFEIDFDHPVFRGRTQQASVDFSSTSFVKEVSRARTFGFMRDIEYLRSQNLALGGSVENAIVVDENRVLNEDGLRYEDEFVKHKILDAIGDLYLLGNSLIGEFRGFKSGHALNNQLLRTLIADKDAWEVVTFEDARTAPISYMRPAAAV
Procedure: The Pseudomonas aeruginosa LpxC enzyme activity was measured by reacting LpxC with its substrate UDP-3-O—(R-3-hydroxydecanoyl)-N-acetylglucosamine and measuring the amount of the reaction product by the quantification of an amino group present in the product. This measurement was carried out according to a method described in, for example, International Publication No. WO 11/132712 pamphlet or a method similar thereto.
Specifically, to the Pseudomonas aeruginosa LpxC enzyme (which was obtained by preparing chromosomal DNA from Pseudomonas aeruginosa, obtaining the Pseudomonas aeruginosa LpxC gene by PCR (polymerase chain reaction) using LpxC-specific primers, and incorporating this gene into a vector, followed by gene expression using Escherichia coli), 20 μmol/L UDP-3-O—(R-3-hydroxydecanoyl)-N-acetylglucosamine (Wako Pure Chemical Industries, Ltd.) was added, and the mixture was incubated at 25° C. for 1 hour. This reaction was carried out in a 40 mmol/L HEPES buffer solution (pH 8.0) containing 0.02% Brij 35 and 80 μmol/L dithiothreitol. The reaction was terminated by the addition of 20% acetic acid (final concentration: 0.95%) to the reaction solution. Then, fluorescamine (final concentration: 1.6 mg/mL) dissolved in anhydrous dioxane was added thereto. The amount of the reaction product was detected at an excitation wavelength/fluorescence wavelength=390 nm/495 nm. Each test compound was allowed to coexist at various concentrations in the reaction to obtain an inhibition curve.

[2] = system: Escherichia coli ATCC25922 strain; assay: Antibacterial activity, MIC by broth microdilution (CLSI); assay type: cell-based
Procedure: (§1) The minimum inhibitory concentration (MIC) was measured according to the CLSI (Clinical and Laboratory Standards Institute) standard method using a broth microdilution method given below. The bacteria used were a Pseudomonas aeruginosa ATCC27853 strain, an Escherichia coli ATCC25922 strain and a Klebsiella pneumoniae ATCC13883 strain. Test bacterial cells of each strain cultured overnight in a Mueller-Hinton agar medium were scraped off and suspended at the McFarland 0.5 standard, and this suspension was diluted 10-fold to prepare an inoculum solution. The inoculum solution (0.005 mL) was inoculated to a cation-adjusted Mueller-Hinton medium containing each test compound and cultured at 35° C. for 16 to 20 hours. The minimum drug concentration at which bacterial growth was not visible to the naked eye was defined as MIC.

[3] = system: Klebsiella pneumoniae ATCC13883 strain; assay: as above; assay type: cell-based
Procedure: as §1

[4] = system: Pseudomonas aeruginosa ATCC27853 strain; assay: as above; assay type: cell-based
Procedure: as §1

[5] = Test on inhibition of Vero cell growth (XTT); assay type: cell-based; conditions: African green monkey, Vero cells, 3 days culture, read-out: CC50 (concentration inhibiting 50% of cell growth)
Procedure: Each test compound was dissolved in dimethyl sulfoxide, adjusted to each concentration using E'MEM, and then dispensed at 0.1 mL/well to 96-well microplates. The Vero cell suspension was prepared at 3×10^4 cells/mL using E'MEM supplemented with 20% FBS, inoculated thereto at 0.1 mL/well, and cultured at 37° C. for 3 days under 5% CO2. At the completion of the culture, PBS supplemented with 1 mg/mL 2,3-bis-(2-methoxy-4-nitro-5-sulfophenyl)-5-((phenylamino)carbonyl)-2H-tetrazolium inner salt monosodium salt (XTT) and 25 μM phenazine methosulfate (PMS) was prepared and added thereto at 50 μL/well. Approximately 2 hours later, the absorbance at 450 nm was measured using a microplate reader.

SMILES | IC50 [1] [nM] | MIC [2] [µg/mL] | MIC [3] [µg/mL] | MIC [4] [µg/mL] | CC50 at 3 days [5] [µg/mL]
CNC(=O)[C@@](C)(C(=O)NO)N(C)C(=O)c1ccc(C#Cc2ccc(COCCO)cc2)cc1 [Example 1, (2S)—N-hydroxy-2-((4-((4-((2-hydroxyethoxy)methyl)phenyl)ethynyl)benzoyl)(methyl)amino)-N′,2-dimethyl-malonamide] | < 50 | 0.25 (≈ 0.551 µM) | 1 (≈ 2.21 µM) | 1 (≈ 2.21 µM) | ≥ 100
CNC(=O)[C@@](C)(C(=O)NO)N(C)C(=O)c1ccc(C#Cc2ccc(C(O)CO)cc2)cc1 (stereo partly drawn) [Example 3, (2S)-2-((4-((4-(1,2-dihydroxyethyl)phenyl)ethynyl)benzoyl)(methyl)amino)-N-hydroxy-N′,2-dimethyl-malonamide] | < 50 | – | – | 1 (≈ 2.28 µM) | ≥ 100
CNC(=O)[C@@](C)(C(=O)NO)N(C)C(=O)c1ccc(C#Cc2ccc(C(C)O)cc2)cc1 (stereo partly drawn) [Example 16, (2S)—N-hydroxy-2-((4-((4-(1-hydroxyethyl)phenyl)ethynyl)benzoyl)(methyl)amino)-N′,2-dimethyl-malonamide] | < 50 | 0.25 (≈ 0.59 µM) | 1 (≈ 2.36 µM) | 1 (≈ 2.36 µM) | –
CNC(=O)[C@@](C)(C(=O)NO)N(C)C(=O)c1ccc(C#Cc2ccc(C(O)CCO)cc2)cc1 (stereo partly drawn) [Example 17, (2S)-2-((4-((4-(1,3-dihydroxypropyl)phenyl)ethynyl)benzoyl)(methyl)amino)-N-hydroxy-N′,2-dimethylmalonamide] | < 50 | – | – | 1 (≈ 2.21 µM) | ≥ 100
CNC(=O)[C@@](C)(C(=O)NO)N(C)C(=O)c1ccc(C#Cc2ccc([C@H](O)COCCO)cc2)cc1 [Example 24, (2S)—N-hydroxy-2-((4-((4-((1S)-1-hydroxy-2-(2-hydroxyethoxy)ethyl)phenyl)ethynyl)benzoyl)(methyl)amino)-N′,2-dimethyl-malonamide] | < 50 | 0.5 (≈ 1.03 µM) | – | 1 (≈ 2.07 µM) | ≥ 100
CNC(=O)[C@@](C)(C(=O)NO)N(C)C(=O)c1ccc(C#Cc2ccc([C@H](O)CCO)cc2)cc1 [Example 25, (2S)-2-((4-((4-((1R)-1,3-dihydroxypropyl)phenyl)ethynyl)benzoyl)(methyl)amino)-N-hydroxy-N′,2-dimethyl-malonamide] | < 50 | 0.5 (≈ 1.1 µM) | – | 0.5 (≈ 1.1 µM) | ≥ 100
CNC(=O)[C@@](C)(C(=O)NO)N(C)C(=O)c1ccc(C#Cc2ccc([C@H](O)[C@H](C)O)cc2)cc1 [Example 33, (2S)-2-((4-((4-((1S,2S)-1,2-dihydroxypropyl)phenyl)ethynyl)benzoyl)(methyl)amino)-N-hydroxy-N′,2-dimethylmalonamide] | < 50 | 0.5 (≈ 1.1 µM) | – | 1 (≈ 2.21 µM) | ≥ 100
CNC(=O)[C@@](C)(C(=O)NO)N(C)C(=O)c1ccc(C#Cc2ccc(C(O)CCCO)cc2)cc1 (stereo partly drawn) [Example 35, (2S)-2-((4-((4-(1,4-dihydroxybutyl)phenyl)ethynyl)benzoyl)(methyl)amino)-N-hydroxy-N′,2-dimethyl-malonamide] | < 50 | – | 1 (≈ 2.14 µM) | 1 (≈ 2.14 µM) | ≥ 100
CNC(=O)[C@@](C)(C(=O)NO)N(C)C(=O)c1ccc(C#Cc2ccc([C@H](O)CCOC)cc2)cc1 [Example 36, (2S)—N-hydroxy-2-((4-((4-((1R)-1-hydroxy-3-methoxypropyl)phenyl)ethynyl)benzoyl)(methyl)amino)-N′,2-dimethylmalonamide] | < 50 | 0.25 (≈ 0.535 µM) | 1 (≈ 2.14 µM) | 0.5 (≈ 1.07 µM) | ≥ 100
CNC(=O)[C@@](C)(C(=O)NO)N(C)C(=O)c1ccc(C#Cc2ccc([C@H](O)/C=C/CO)cc2)cc1 [Example 40, (2S)-2-((4-((4-((1R,2E)-1,4-dihydroxybut-2-ene-1-yl)phenyl)ethynyl)benzoyl)(methyl)amino)-N-hydroxy-N′,2-dimethyl-malonamide] | < 50 | 0.5 (≈ 1.07 µM) | 1 (≈ 2.15 µM) | 1 (≈ 2.15 µM) | –
